Source: US12037322B2, “AHR agonists” (Eli Lilly and Company, priority 2021, dated 2024)

Target: T1, hAHR (Homo sapiens, UniProt P35869)
T1 construct: expressed in transfected cells
T1 sequence (P35869 11-848): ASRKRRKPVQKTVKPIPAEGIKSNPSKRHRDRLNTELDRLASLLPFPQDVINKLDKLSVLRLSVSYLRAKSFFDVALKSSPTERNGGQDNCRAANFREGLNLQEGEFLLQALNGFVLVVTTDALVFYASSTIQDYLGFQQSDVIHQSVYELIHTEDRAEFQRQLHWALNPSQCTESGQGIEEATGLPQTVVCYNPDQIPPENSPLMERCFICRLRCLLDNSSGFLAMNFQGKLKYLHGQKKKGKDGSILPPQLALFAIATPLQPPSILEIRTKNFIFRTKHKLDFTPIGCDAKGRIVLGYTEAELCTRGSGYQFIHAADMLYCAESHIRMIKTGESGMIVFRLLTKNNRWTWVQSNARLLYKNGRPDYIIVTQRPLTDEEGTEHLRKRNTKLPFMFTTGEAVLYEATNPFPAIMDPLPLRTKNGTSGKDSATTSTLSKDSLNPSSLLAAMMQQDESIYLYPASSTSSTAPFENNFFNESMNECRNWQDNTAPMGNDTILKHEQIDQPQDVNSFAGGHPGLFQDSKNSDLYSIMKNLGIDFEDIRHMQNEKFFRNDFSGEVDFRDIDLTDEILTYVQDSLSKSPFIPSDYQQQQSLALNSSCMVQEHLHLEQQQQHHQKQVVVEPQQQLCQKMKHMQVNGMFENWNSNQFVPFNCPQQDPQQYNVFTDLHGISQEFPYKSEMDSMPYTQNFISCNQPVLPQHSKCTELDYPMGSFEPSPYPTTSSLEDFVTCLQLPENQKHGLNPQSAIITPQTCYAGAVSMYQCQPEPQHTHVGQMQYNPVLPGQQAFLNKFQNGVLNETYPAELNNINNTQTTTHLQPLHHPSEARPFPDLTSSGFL
Experiment: hAHR nuclear translocation assay
Format: cell-based
Conditions: Jump-In T-REx HEK293 cells expressing AhR-EGFP; 45 min incubation; ratio of EGFP intensity in nuclear over cytosol; 20-point curve
Procedure: Stable cell lines were established using Jump-In™ T-REx™ HEK293 Retargeting Kit (Life Technologies). hAhR cDNA was cloned into the pJTI R4 CMV-TO EGFP vector. The EGFP was cloned to the C-terminal of AHR to form AhR-EGFP chimera. The pJTI R4 CMV-TO AhR-EGFP vector was transfected using FuGENE® HD into Jump-In™ T-REx™ HEK293 cells. Transfected cells were selected using 2.5 mg/ml G418 for 10 to 14 days, then expanded, harvested, and suspended in freeze media (FBS with 8% DMSO) at 2×10^7 cells/mL, and aliquots were stored in liquid nitrogen. One day before the assay date, cells were thawed and resuspended in DMEM with 5% FBS in the presence of 1 μg/mL Doxycycline and plated into ploy-L-Lysine coated […]-384 ULTRA Microplates (Perkin Elmer) at 12,000 to 15,000 cells per well and incubated at 37° C. and 5% CO2 overnight. On the assay date, compound was serially diluted (1:2) into 384-well nunc plates with DMSO using acoustic dispensing (ECHO). The dose response was a 20-point curve. Compound was resuspended in 40 μL of DMEM plus 0.1% BSA. The culture media was damped and 25 μL of DMEM plus 0.1% BSA was added, then 25 μL of compound in DMEM plus 0.1% BSA was added into cell plates. Cells were incubated with compounds at 37° C. and 5% CO2 for 45 min.
The final DMSO concentration was 0.2%. The media was damped after 45 minutes incubation. The cells were fixed with 40 μL of cold MeOH (−20° C.) for 20 min. The MeOH was damped and 50 μL of DPBS containing 1 μg/mL Hochst was added into the cell plates. The intensity of EGFP was quantitated by using OPERA PHENIX® or Operetta™ high content image system (Perkin Elmer) with 20× Water Objective and five field per well. The ratio of EGFP fluorescent intensity in nuclear over cytosol was analyzed using a 4-parameter nonlinear logistic equation to determine the potency of AhR agonists.

Structure (SMILES)	EC50 [nM]
C[C@@H]1CCc2c1cc(C(=O)Nc1ncc(Cl)cn1)c(=O)n2C [Example 25, (5R)-N-(5-Chloropyrimidin-2-yl)-1,5-dimethyl-2-oxo-6,7-dihydro-5H-cyclopenta[b]pyridine-3-carboxamide]	1.91
CC1CCc2c1cc(C(=O)Nc1ncccn1)c(=O)n2C (single isomer, unassigned) [Example 80, 1,5-Dimethyl-2-oxo-N-pyrimidin-2-yl-6,7-dihydro-5H-cyclopenta[b]pyridine-3-carboxamide]	10.9
CC1CCc2c1c(O)c(C(=O)Nc1cnsc1)c(=O)n2C (single isomer, unassigned) [Example 40, 4-Hydroxy-N-isothiazol-4-yl-1,5-dimethyl-2-oxo-6,7-dihydro-5H-cyclopenta[b]pyridine-3-carboxamide]	2.37
CC1CCc2c1cc(C(=O)Nc1nccs1)c(=O)n2C (single isomer, unassigned) [Example 63, 1,5-Dimethyl-2-oxo-N-thiazol-2-yl-6,7-dihydro-5H-cyclopenta[b]pyridine-3-carboxamide]	2.55
Cn1c2c(cc(C(=O)Nc3ccc(F)cn3)c1=O)CC(C)(C)CC2 [Example 49, N-(5-Fluoro-2-pyridyl)-1,6,6-trimethyl-2-oxo-7,8-dihydro-5H-quinoline-3-carboxamide]	2.03
C[C@H]1CCc2c1cc(C(=O)Nc1ncc(F)cn1)c(=O)n2C [Example 13, (5S)-N-(5-Fluoropyrimidin-2-yl)-1,5-dimethyl-2-oxo-6,7-dihydro-5H-cyclopenta[b]pyridine-3-carboxamide]	4.67
C[C@@H]1CCc2c1cc(C(=O)Nc1ccccn1)c(=O)n2C [Example 23, (5R)-1,5-Dimethyl-2-oxo-N-(2-pyridyl)-6,7-dihydro-5H-cyclopenta[b]pyridine-3-carboxamide]	11.5
CC1CCc2c1c(O)c(C(=O)Nc1ccc(F)cn1)c(=O)n2C (single isomer, unassigned) [Example 100, N-(5-Fluoro-2-pyridyl)-4-hydroxy-1,5-dimethyl-2-oxo-6,7-dihydro-5H-cyclopenta[b]pyridine-3-carboxamide]	2.17
C[C@H]1CCc2c1cc(C(=O)Nc1cnsc1)c(=O)n2C [Example 21, (5S)-N-Isothiazol-4-yl-1,5-dimethyl-2-oxo-6,7-dihydro-5H-cyclopenta[b]pyridine-3-carboxamide]	4.72
Cn1c2c(cc(C(=O)Nc3ncccn3)c1=O)C(C)(C)CC2 [Example 46, 1,5,5-Trimethyl-2-oxo-N-pyrimidin-2-yl-6,7-dihydrocyclopenta[b]pyridine-3-carboxamide]	31.5
CC1CCc2c1cc(C(=O)Nc1ncc(C(F)(F)F)cn1)c(=O)n2C (single isomer, unassigned) [Example 65, 1,5-Dimethyl-2-oxo-N-[5-(trifluoromethyl)pyrimidin-2-yl]-6,7-dihydro-5H-cyclopenta[b]pyridine-3-carboxamide]	1.22
Cn1c2c(cc(C(=O)Nc3ccccc3)c1=O)CCCC2 [Example 104, 1-Methyl-2-oxo-N-phenyl-5,6,7,8-tetrahydroquinoline-3-carboxamide]	0.502
CC1CCc2c1c(O)c(C(=O)Nc1ncc(Cl)cn1)c(=O)n2C (single isomer, unassigned) [Example 94, N-(5-Chloropyrimidin-2-yl)-4-hydroxy-1,5-dimethyl-2-oxo-6,7-dihydro-5H-cyclopenta[b]pyridine-3-carboxamide]	0.533
CC1CCc2c1c(O)c(C(=O)Nc1ccc(F)cn1)c(=O)n2C (stereo not drawn) [Example 26, N-(5-Fluoro-2-pyridyl)-4-hydroxy-1,5-dimethyl-2-oxo-6,7-dihydro-5H-cyclopenta[b]pyridine-3-carboxamide]	2.87
CC1CCc2c1c(O)c(C(=O)Nc1ncc(F)cn1)c(=O)n2C (single isomer, unassigned) [Example 95, N-(5-Fluoropyrimidin-2-yl)-4-hydroxy-1,5-dimethyl-2-oxo-6,7-dihydro-5H-cyclopenta[b]pyridine-3-carboxamide]	1.21
CC1CCc2c1c(O)c(C(=O)Nc1ncc(C(F)(F)F)cn1)c(=O)n2C (single isomer, unassigned) [Example 98, 4-Hydroxy-1,5-dimethyl-2-oxo-N-[5-(trifluoromethyl)pyrimidin-2-yl]-6,7-dihydro-5H-cyclopenta[b]pyridine-3-carboxamide]	0.342
C[C@@H]1CCc2c1cc(C(=O)Nc1ccns1)c(=O)n2C [Example 16, (5R)-N-Isothiazol-5-yl-1,5-dimethyl-2-oxo-6,7-dihydro-5H-cyclopenta[b]pyridine-3-carboxamide]	1.35
Cn1c2c(cc(C(=O)Nc3ccccc3)c1=O)CCCCC2 [Example 109, 1-Methyl-2-oxo-N-phenyl-6,7,8,9-tetrahydro-5H-cyclohepta[b]pyridine-3-carboxamide]	1.04
CC1CCc2c1cc(C(=O)Nc1ccc(F)cn1)c(=O)n2C (single isomer, unassigned) [Example 56, N-(5-Fluoro-2-pyridyl)-1,5-dimethyl-2-oxo-6,7-dihydro-5H-cyclopenta[b]pyridine-3-carboxamide]	2.44
C[C@@H]1CCc2c1c(O)c(C(=O)Nc1ncccn1)c(=O)n2C (single isomer, unassigned) [Example 86, 4-Hydroxy-1,5-dimethyl-2-oxo-N-pyrimidin-2-yl-6,7-dihydro-5H-cyclopenta[b]pyridine-3-carboxamide]	7.79
CC(C)C1CCc2c1cc(C(=O)Nc1ncc(F)cn1)c(=O)n2C (single isomer, unassigned) [Example 113, N-(5-fluoropyrimidin-2-yl)-5-isopropyl-1-methyl-2-oxo-6,7-dihydro-5H-cyclopenta[b]pyridine-3-carboxamide]	11.2
C[C@@H]1CCc2c1cc(C(=O)Nc1cnsc1)c(=O)n2C [Example 20, (5R)-N-Isothiazol-4-yl-1,5-dimethyl-2-oxo-6,7-dihydro-5H-cyclopenta[b]pyridine-3-carboxamide]	5.23
C[C@H]1CCc2c1cc(C(=O)Nc1ccns1)c(=O)n2C [Example 17, (5S)-N-Isothiazol-5-yl-1,5-dimethyl-2-oxo-6,7-dihydro-5H-cyclopenta[b]pyridine-3-carboxamide]	1.34
CC1CCc2c1cc(C(=O)Nc1ncc(C(F)(F)F)cn1)c(=O)n2C (stereo not drawn) [Example 8, 1,5-Dimethyl-2-oxo-N-[5-(trifluoromethyl)pyrimidin-2-yl]-6,7-dihydro-5H-cyclopenta[b]pyridine-3-carboxamide]	1.42
CC1CCc2c1c(O)c(C(=O)Nc1ccccn1)c(=O)n2C (single isomer, unassigned) [Example 90, 4-Hydroxy-1,5-dimethyl-2-oxo-N-(2-pyridyl)-6,7-dihydro-5H-cyclopenta[b]pyridine-3-carboxamide]	2.89
Cn1c2c(c(O)c(C(=O)Nc3ncc(F)cn3)c1=O)C(C)(C)CC2 [Example 43, N-(5-Fluoropyrimidin-2-yl)-4-hydroxy-1,5,5-trimethyl-2-oxo-6,7-dihydrocyclopenta[b]pyridine-3-carboxamide]	0.973
CC1CCc2c1c(O)c(C(=O)Nc1ncccc1F)c(=O)n2C (single isomer, unassigned) [Example 91, N-(3-Fluoro-2-pyridyl)-4-hydroxy-1,5-dimethyl-2-oxo-6,7-dihydro-5H-cyclopenta[b]pyridine-3-carboxamide]	4.86
